Data on one molecule can be found in publication PMC4222822, “Discovery and Characterization of a Potent and Selective Inhibitor of Aedes aegypti Inward Rectifier Potassium Channels” (PLoS ONE, 2014).

The test system of test [1] is mammalian Kir channels (Kir1.1, Kir2.1, Kir2.2, Kir2.3, Kir3.1/3.2, Kir4.1, Kir7.1(M125R), Kir6.2/SUR1). The test is described as follows: Tl+ flux assays against a panel of mammalian Kir channels. Format: cell-based. Conditions: vs AeKir1 IC50 = 96.8 nM. As for the experimental part:
The plates were transferred to a Hamamatsu Functional Drug Screening System 6000 (FDSS6000; Hamamatsu, Hamamatsu (or Bridgewater, NJ), Japan) where 20 µL/well of test compounds in assay buffer (as prepared below) were added and allowed to incubate with the cells for 20 min. After the incubation period, a baseline recording was collected at 1 Hz for 10 s (excitation 470±20 nm, emission 540±30 nm) followed by a Tl^+ stimulus buffer addition (10 µL/well) and data collection for an additional 4 min. The Tl^+ stimulus buffer contains in (mM) 125 NaHCO3, 1.8 CaSO4, 1 MgSO4, 5 glucose, 12 Tl2SO4, 10 HEPES, pH 7.4. For Tl^+ flux assays on the mammalian channels Kir2.x, Kir4.1 and Kir6.2/SUR1 expressing cells, the Tl^+ stimulus buffer contained 1.8 mM Tl2SO4. Also, Tl^+ flux assays on Kir3.1/3.2/mGlu8 expressing cell, required addition of an EC80 concentration of glutamate (Sigma-Aldrich, St. Louis, MO) with the Tl^+ stimulus buffer.
The test compounds were transferred to daughter polypropylene 384-well plates (Greiner Bio-One, Monroe, NC) using an Echo555 liquid handler (Labcyte, Sunnyvale, CA), and then diluted into assay buffer to generate a 2X stock in 0.6% DMSO (0.3% final). For Tl^+ flux assays on Kir6.2/SUR1 expressing cells, test compounds were diluted in assay buffer containing diazoxide (250 µM final) to induce channel activation. […]

For the next test, the target named is AeKir1 (Aedes aegypti, UniProt L0EQS9). The test is described as follows: Tl+ flux assay in T-REx-HEK293-AeKir1 cells. It is filed as cell-based. As for the experimental part:
Tl^+ flux assays were performed essentially as described previously, [18], [19]. Briefly, stably transfected T-Rex-HEK-293 cells expressing AeKir1 channels were cultured overnight in 384-well plates (20,000 cells/20 µL/well black-walled, clear-bottomed BD PureCoat amine-coated plates (BD, Bedford, MA) with a plating media containing DMEM, 10% dialyzed FBS and 1 µg/mL tetracycline. The next day, the cell culture medium was replaced with a dye-loading solution containing assay buffer (Hanks Balanced Salt Solution with 20 mM HEPES, pH 7.3), 0.01% (w/v) Pluronic F-127 (Life Technologies, Carlsbad, CA), and 1.2 µM of the thallium-sensitive dye Thallos-AM (TEFlabs, Austin, TX). Following 1 hr incubation at room temperature, the dye-loading solution was washed from the plates and replaced with 20 µL/well of assay buffer. The plates were transferred to a Hamamatsu Functional Drug Screening System 6000 (FDSS6000; Hamamatsu, Hamamatsu (or Bridgewater, NJ), Japan) where 20 µL/well of test compounds in assay buffer (as prepared below) were added and allowed to incubate with the cells for 20 min. After the incubation period, a baseline recording was collected at 1 Hz for 10 s (excitation 470±20 nm, emission 540±30 nm) followed by a Tl^+ stimulus buffer addition (10 µL/well) and data collection for an additional 4 min. The Tl^+ stimulus buffer contains in (mM) 125 NaHCO3, 1.8 CaSO4, 1 MgSO4, 5 glucose, 12 Tl2SO4, 10 HEPES, pH 7.4. For Tl^+ flux assays on the mammalian channels Kir2.x, Kir4.1 and Kir6.2/SUR1 expressing cells, the Tl^+ stimulus buffer contained 1.8 mM Tl2SO4. Also, Tl^+ flux assays on Kir3.1/3.2/mGlu8 expressing cell, required addition of an EC80 concentration of glutamate (Sigma-Aldrich, St. Louis, MO) with the Tl^+ stimulus buffer. The test compounds were transferred to daughter polypropylene 384-well plates (Greiner Bio-One, Monroe, NC) using an Echo555 liquid handler (Labcyte, Sunnyvale, CA), and then diluted into assay buffer to generate a 2X stock in 0.6% DMSO (0.3% final). For Tl^+ flux assays on Kir6.2/SUR1 expressing cells, test compounds were diluted in assay buffer containing diazoxide (250 µM final) to induce channel activation. Concentration-response curves (CRCs) were generated by screening compounds at 3-fold dilution series in 4-point (1 µM–30 µM) or 11-point (1 nM–30 µM) CRCs. Tl^+ flux data were analyzed as previously described, [21], [22] using a combination of Excel (Microsoft Corp, Redmond, WA) with XLfit add-in (IDBS, Guildford, Surrey, UK) and OriginPro (OriginLab, Northampton, MA) software. Raw data were opened in Excel and each data point in a given trace was divided by the first data point from that trace (static ratio) followed by subtraction of data points from control traces generated in the presence of vehicle controls. The slope of the fluorescence increase beginning 5 s after Tl^+ addition and ending 15 s after Tl^+ addition was calculated. To compare the effect of DMSO on AeKir1-mediated Tl^+ flux, a one-way ANOVA was performed with a Tukey's multiple comparison test. Prism software (GraphPad Software) was used to generate CRC from Tl^+ flux. Half-inhibition concentration (IC50) values were calculated from fits using a four parameter logistic equation.

Where two headings read alike, the source gives them in different places.

Chain of AeKir1 (L0EQS9 entry or part of it): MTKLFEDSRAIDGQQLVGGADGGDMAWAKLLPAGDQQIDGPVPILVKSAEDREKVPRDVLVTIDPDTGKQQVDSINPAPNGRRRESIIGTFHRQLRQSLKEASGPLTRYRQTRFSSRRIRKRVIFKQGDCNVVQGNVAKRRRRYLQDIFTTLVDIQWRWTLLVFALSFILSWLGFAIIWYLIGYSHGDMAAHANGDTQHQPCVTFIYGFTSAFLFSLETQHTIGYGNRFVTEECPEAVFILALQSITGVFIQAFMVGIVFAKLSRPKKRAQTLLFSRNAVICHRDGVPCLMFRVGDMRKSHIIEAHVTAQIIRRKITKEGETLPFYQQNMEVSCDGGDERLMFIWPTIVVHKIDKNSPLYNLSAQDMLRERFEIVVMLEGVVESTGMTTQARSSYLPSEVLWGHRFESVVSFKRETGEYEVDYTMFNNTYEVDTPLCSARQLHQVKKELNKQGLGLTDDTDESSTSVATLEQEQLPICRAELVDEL

On to `CCC(=O)N1c2ccc(S(=O)(=O)Nc3cccc(OC)c3)cc2CC1C` (stereo not drawn) [VU625, N-(3-methoxyphenyl)-2-methyl-1-propionylindoline-5-sulfonamide], for which the “selectivity for the AeKir1 channel over 8 mammalian Kir channels” value in test [1] is “greater than 80 fold”. Also, the IC50 was 320 nM on AeKir1 (11-point CRCs, 95% CI: 0.25–0.39 µM, read-out: IC50 (AeKir1, Tl+ flux)); 315 nM at AeKir1 (Fig. 2C, 95% CI: 254.4–390.2 nM, n = 4 independent experiments in triplicate, read-out: IC50 (AeKir1, Tl+ flux)); 360 ± 20 nM on AeKir1 (Table 2, southern amide SAR, 11-point CRCs on AeKir1 in Tl+ flux, triplicate on two separate days, read-out: IC50±SEM); 856 nM at AeKir1 (Table S3, left-hand sulfonamide SAR, 11-point CRCs on AeKir1 in Tl+ flux, triplicate on two separate days, read-out: IC50). In addition, on AeKir1 (Tl+ flux CRC, 95% CI: 0.8–1.2), the “Hill coefficient (nH)” value amounted to 0.98.
